Series [1] deals with Mus musculus. Put plainly: Analgetic activity in po dosed CF1S mouse assessed as writhing by phenylquinone writhing test. It counts as functional. Particulars: Mus musculus, CF1S, po; read-out: ED50. A general note: An intraperitoneal irritant provokes the stretching counted in writhing tests.
For series [2], the species on record is Mus musculus. The series is described as follows: Analgetic activity in naloxone challenged mouse assessed as frequency pretreated for 2 day by mouse jumping test. It counts as functional, organism-based.
The subject of series [3] is Mus musculus. Put plainly: Analgetic activity against CF-1 mouse assessed as increase in reaction time at 16 mg/kg, po by heat stimulus induced tail flick response assay. It counts as functional, organism-based. More on the design: dose 16 mg/kg.
For series [4], the system named is Mus musculus. The series is described as follows: Analgetic activity against CF-1 mouse assessed as increase in reaction time at 4 mg/kg, sc by heat stimulus induced tail flick response assay. Type of series: functional, organism-based. More on the design: dose 4 mg/kg.
Series [5] deals with Mus musculus. Put plainly: Analgetic activity against CF-1 mouse assessed as increase in reaction time at 10 mg/kg, sc by heat stimulus induced tail flick response assay. It counts as functional, organism-based. More on the design: dose 10 mg/kg.
Series [6] has as its system Mus musculus. The series is described as follows: Analgetic activity against CF-1 mouse assessed as increase in reaction time at 20 mg/kg, po by heat stimulus induced tail flick response assay. It counts as functional, organism-based. More on the design: dose 20 mg/kg.
Series [7] relates to Mus musculus. Put plainly: Analgetic activity against CF-1 mouse assessed as increase in reaction time at 30 mg/kg, po by heat stimulus induced tail flick response assay. Type of series: functional, organism-based. More on the design: dose 30 mg/kg.
The subject of series [8] is Mus musculus. Put plainly: Analgetic activity in sc dosed CF1S mouse assessed as writhing by phenylquinone writhing test. Type of series: functional. Particulars: Mus musculus, CF1S, sc; read-out: ED50.
Series [9] deals with Mus musculus. The series is described as follows: Analgetic activity against CF-1 mouse assessed as increase in reaction time at 5 mg/kg, sc by heat stimulus induced tail flick response assay. Type of series: functional, organism-based. More on the design: dose 5 mg/kg.
Series [10] deals with Mus musculus. Put plainly: Analgetic activity against CF-1 mouse assessed as increase in reaction time at 1.2 mg/kg, po by heat stimulus induced tail flick response assay. It counts as functional, organism-based. More on the design: dose 1.2 mg/kg.
For series [11], the system named is Mus musculus. The series is described as follows: Analgetic activity against CF-1 mouse assessed as increase in reaction time at 140 mg/kg, sc by heat stimulus induced tail flick response assay. Type of series: functional, organism-based. More on the design: dose 140 mg/kg.
In series [12] the test system is Mus musculus. Put plainly: Analgetic activity against CF-1 mouse assessed as increase in reaction time at 2 mg/kg, sc by heat stimulus induced tail flick response assay. It counts as functional, organism-based. More on the design: dose 2 mg/kg.
Series [13] has as its system Rhesus monkey. The series is described as follows: Analgetic activity in naloxone challenged monkey assessed as frequency pretreated for 2 day by mouse jumping test. Type of series: functional, organism-based. The following applies: Macaca mulatta.
The test system of series [14] is Mus musculus. Put plainly: Toxicity in sc dosed CF1S mouse. Type of series: organism-based. The following applies: in vivo.
In series [15] the test system is Mus musculus. The series is described as follows: Analgetic activity against CF-1 mouse assessed as increase in reaction time at 80 mg/kg, po by heat stimulus induced tail flick response assay. Type of series: functional, organism-based. More on the design: dose 80 mg/kg.
Series [16] concerns Mus musculus. Put plainly: Analgetic activity against CF-1 mouse assessed as increase in reaction time at 10 mg/kg, po by heat stimulus induced tail flick response assay. It counts as functional, organism-based. More on the design: dose 10 mg/kg.
Series [17] deals with Mus musculus. The series is described as follows: Analgetic activity against CF-1 mouse assessed as increase in reaction time at 1.5 mg/kg, sc by heat stimulus induced tail flick response assay. Type of series: functional, organism-based. More on the design: dose 1.5 mg/kg.
Series [18] deals with Mus musculus. The series is described as follows: Analgetic activity against CF-1 mouse assessed as increase in reaction time at 60 mg/kg, sc by heat stimulus induced tail flick response assay. It counts as functional, organism-based. More on the design: dose 60 mg/kg.

The values that follow come from ChEMBL document CHEMBL3244027, “Syntheses, analgetic activity, and physical dependence capacity of 5-phenyl-6,7-benzomorphan derivatives” (J Med Chem, 1979).

Activity calls are given as the source filed them. No cut-off for these calls is given here.

As for `CN1CC[C@]23c4c5ccc(O)c4O[C@H]2[C@@H](O)C=C[C@H]3[C@H]1C5` [MORPHINE], the median effective dose (ED50) in series [1] was 8.9 mg/kg. Further, the result in [2], in series [3] and in series [4] was Active.

Regarding `CC1C2Cc3ccc(O)cc3C1(c1ccc(Cl)cc1)CCN2C` (racemic), the result in series [5] and in series [6] was Active. `CC(=O)Oc1ccc2c(c1)C1(c3ccccc3)CCN(C(C)=O)C(C2)C1` (racemic): in [7], the outcome was inactive. In addition, the 50% effective dose (ED50) in [8] is greater than 100 mg/kg. As for `CC1C2Cc3ccc(OC(=O)c4ccc(Br)cc4)cc3C1(c1ccccc1)CCN2C` (centres undefined), the result in [9] and in [10] was Active. Turning to `CCN1CCC2(c3ccccc3)c3cc(O)ccc3CC1C2C` (centres undefined), in series [11], the outcome was Active. `C[C@@H]1C2Cc3ccc(O)cc3C1(c1ccccc1)CCN2C` (some centres undefined): the outcome in series [12] and in [13] was Active. Turning to `Oc1ccc2c(c1)C1(c3ccccc3)CCN(CC3CC3)C(C2)C1` (centres undefined), the Activity entry in [14] is “Toxic”.

As to `CC1C2Cc3ccc(O)cc3C1(c1ccccc1)CCN2CCc1ccccc1` (centres undefined), the result in series [5] and in series [15] was Active. Turning to `CCCCC(=O)Oc1ccc2c(c1)C1(c3ccccc3)CCN(C)C(C2)C1C` (centres undefined), the outcome in series [16] and in series [17] was Active. `CN1CCC2(c3ccccc3)CC1Cc1ccc(O)cc12` (stereo in doubt; 43): in series [18], the outcome was inactive.

For orientation: ED50 means the midpoint of the dose-response relation.
